Holding throughout (assay): relative viability (nuclei count vs DMSO), 5 days (fraction); higher = more cells survive
Compound in the experiment “Linsitinib + Foretinib”: C[C@]1(O)C[C@@H](c2nc(-c3ccc4ccc(-c5ccccc5)nc4c3)c3c(N)nccn32)C1 [Linsitinib] + COc1cc2c(Oc3ccc(NC(=O)C4(C(=O)Nc5ccc(F)cc5)CC4)cc3F)ccnc2cc1OCCCN1CCOCC1 [Foretinib] (partner 0.25 µM)
A digest of the protocol: (§1)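 Relative viability equals treated-well nuclei counts divided by vehicle-well nuclei counts. Counts came from 4× images of lung cancer cell lines grown in 1536-well plates for 5 days after pin-tool dosing on the day after seeding. Dosing used one drug alone or a fixed anchor-drug dose plus five library-drug doses (not always all listed) in √10 steps, and values are medians of duplicate plates.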

Compound in the experiment “Linsitinib + Bortezomib”: C[C@]1(O)C[C@@H](c2nc(-c3ccc4ccc(-c5ccccc5)nc4c3)c3c(N)nccn32)C1 [Linsitinib] + CC(C)C[C@H](NC(=O)[C@H](Cc1ccccc1)NC(=O)c1cnccn1)B(O)O [Bortezomib] (partner 0.002 µM)
The gist of the method:
as §1

Compound in the experiment “Linsitinib + Lapatinib”: C[C@]1(O)C[C@@H](c2nc(-c3ccc4ccc(-c5ccccc5)nc4c3)c3c(N)nccn32)C1 [Linsitinib] + CS(=O)(=O)CCNCc1ccc(-c2ccc3ncnc(Nc4ccc(OCc5cccc(F)c5)c(Cl)c4)c3c2)o1 [Lapatinib] (partner 2 µM)
A digest of the protocol: as §1

Consider UMC-11, for which the relative viability with Linsitinib + Foretinib (first compound 0.01 µM) was determined as 0.976; with Linsitinib + Foretinib (first compound 0.03162 µM), 0.89; with Linsitinib + Foretinib (first compound 0.1 µM), 1.03; in the experiment with Linsitinib + Foretinib (first compound 1 µM), 1.02; in the experiment with Linsitinib + Bortezomib (first compound 0.01 µM) it was 0.693; with Linsitinib + Bortezomib (first compound 0.03162 µM), 0.621. The relative viability with Linsitinib + Bortezomib (first compound 0.1 µM) came out at 0.829; with Linsitinib + Bortezomib (first compound 1 µM), 0.752; with Linsitinib + Lapatinib (first compound 0.01 µM), 0.889; with Linsitinib + Lapatinib (first compound 0.03162 µM), 0.871; with Linsitinib + Lapatinib (first compound 0.1 µM) it was 1.08; with Linsitinib + Lapatinib (first compound 0.3162 µM), 0.303. The relative viability in the experiment with Linsitinib + Lapatinib (first compound 1 µM) was 0.843.
